Assay results published in patent US20120134974A1, “METHODS FOR REMOVING PLASMA” (BIOVEC TRANSFUSION, LLC, priority 2010, published 2012).

Columns and labels:
[1] = tested on: platelets; assay: thromboelastography (TEG) of platelet concentrate; type: cell-based; details: 2.4 mg Argatroban in 350 ml of platelets; straight line on the thromboelastogram
Experimental: In one experiment, platelet concentrates obtained by the buffy coat method were used for the study. Integrilin (Eptifibatide), a GPIIb/IIIa inhibitor, and Argabotran, a synthetic thrombin inhibitor, were added to platelet units at three times the therapeutic concentrations (i.e., 48 micrograms of Integrilin and 2.4 mg of Argatroban in 350 ml of platelets). Removal of the inhibitors was initiated by diafiltration. 15 ml of the platelet concentrate was diafiltered against 60 ml of a solution containing 20% fresh frozen plasma in a commercially used platelet storage solution (T-Sol). The samples were stored overnight and platelet functionality was measured on Day 2, by Thromboelastography (TEG) and using standard agonists such as TRAP and collagen.
In another experiment, Integrilin and Argabotran were added to platelet units at three times the therapeutic loading concentrations (i.e., 48 micrograms for Integrilin and 2.4 mg for Argatroban in 350 ml of platelets). Prior to the addition of the inhibitors, baseline data of platelet functionality was obtained. These baseline data included thromboelastography, which assesses overall platelet function and clot strength, as well as the TRAP test and the collagen test, which are additional markers of platelet functionality. […]

[2] = biological target: factor Xa (Homo sapiens, UniProt P00742); details: cited from earlier work
Sequence of factor Xa (P00742 235-488 limits assumed): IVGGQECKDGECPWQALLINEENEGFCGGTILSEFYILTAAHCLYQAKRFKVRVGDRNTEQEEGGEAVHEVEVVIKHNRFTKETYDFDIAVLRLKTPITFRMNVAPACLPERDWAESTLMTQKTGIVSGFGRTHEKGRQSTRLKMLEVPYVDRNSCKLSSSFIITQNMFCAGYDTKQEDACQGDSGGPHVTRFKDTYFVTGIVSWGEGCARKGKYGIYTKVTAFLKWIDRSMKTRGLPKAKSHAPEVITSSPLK
Sequence of factor Xa (P00742 41-179 partner limits assumed): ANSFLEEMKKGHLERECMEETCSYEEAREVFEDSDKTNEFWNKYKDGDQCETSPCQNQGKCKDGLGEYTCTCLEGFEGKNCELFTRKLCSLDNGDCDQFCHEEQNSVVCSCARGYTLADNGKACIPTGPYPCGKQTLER

[3] = tested on: PT and αPTT; details: more sensitive to the αPTT; cited from earlier work

SMILES | effect on activation of platelets on the thromboelastogram [1] | mode of factor Xa inhibition [2] | effect on PT and αPTT [3]
CC1CNc2c(cccc2S(=O)(=O)N[C@@H](CCCNC(=N)N)C(=O)N2CC[C@@H](C)C[C@@H]2C(=O)O)C1 (stereo partly shown) [Argatroban] | completely blocks the activation of platelets | – | –
CC(=N)N1CC[C@H](Oc2ccc([C@H](Cc3ccc4ccc(C(=N)N)cc4c3)C(=O)O)cc2)C1 [DX-9065a] | – | competitive manner | –
COc1ccc2ccc(S(=O)(=O)N(C)[C@H]3CCN(Cc4csc(C(=N)N)c4)C3=O)cc2c1 [RPR-120844] | – | fast binding, reversible and competitive inhibitor | prolongs the PT and αPTT in a concentration-dependent manner
